# Tests used:
# Assay type in all cases: cell-based
# [1] = system: preformed stress granules in U2OS cells stably expressing G3BP1-GFP; test: Post-addition: dissolution of preformed arsenite-induced stress granules; settings: 50 μM added after 30 min of 250 μM NaAsO2
# Method: For post-addition of compounds, U2OS cells stably expressing G3BP1-GFP were seeded into eight-well Lab-Tek chambered cover glass (Nunc) for sodium arsenite experiments or 35-mm glass-bottom dishes (MatTek) for heat shock experiments. Immediately prior to the experiment, media was replaced with FluoroBrite DMEM media (Gibco) in each well supplemented with 10% FBS and 4 mM L-glutamine; for sodium arsenite experiments, arsenite was added at a final concentration of 250 μM. Cells were then placed on a microscope on which 37°C temperature and 5% CO2 were maintained using a Bold Line Cage Incubator (Okolab) and an objective heater (Bioptechs), and 5–10 xy fields were stored. For sodium arsenite experiments, acquisition began immediately after finding all xy positions, 4 min after the addition of sodium arsenite. 30 min after arsenite was added, 250 μl FluoroBrite DMEM with 250 μM sodium arsenite and 0.1 mM (2×) G3I compound (vortexed for 5 s) was added to the sample. For heat shock experiments, each xy position was imaged every minute. At 2 min into the acquisition, the objective heater was ramped to 43°C. Following this, 250 μM (5×) G3I compound was prepared in FluoroBrite DMEM and vortexed for 15 s. This solution was kept on a 47°C heater near the microscope along with a pipette tip. […]
# [2] = system: eIF3η and PABPC1 puncta in U2OS cells; test: Immunofluorescence of additional stress granule markers after preincubation; settings: 50 μM pretreatment, 250 μM NaAsO2 for 30 min
# Method: (§1) U2OS cells or U2OS cells stably expressing G3BP1-GFP were seeded in four-well Lab-Tek II Chambered Coverglass (1055360; Thermo Fisher Scientific). For preincubation experiments, cells were treated with 50 μM G3I compound for 20 min or 24 h, followed by 250 μM NaAsO2 and 50 μM G3I compound for 30 min. For posttreatment, cells were treated with 250 μM NaAsO2 for 30 min, followed by treatment with 250 μM NaAsO2 and 50 μM G3I compound for 5 min. Cells were then washed twice with PBS and fixed with 4% PFA in PBS for 10 min. Cells were then washed three times with PBS (5 min between each wash), permeabilized with 0.5% Triton X-100 in PBS for 10 min, and washed twice with PBS. Next, cells were blocked for 1 h with 3% BSA in PBS at room temperature, followed by incubation with primary antibodies diluted in 3% BSA overnight at 4°C. Cells were then washed three times with PBS (5 min between each wash) and incubated with secondary antibodies and Hoechst diluted in 3% BSA at room temperature for 1 h. Cells were then washed three times with PBS (5 min between each wash) and imaged. […]
# [3] = system: TDP-43 accumulation in stress granules in U2OS cells; test: TDP-43 immunofluorescence after preincubation and arsenite; settings: 50 μM pretreatment, 250 μM NaAsO2 for 30 min
# Method: as §1
# U2OS cells = test: Cytotoxicity assay (CellTiter-Glo, ATP levels); settings: 24 h, ATP levels by luciferase signal
# Method: U2OS (HTB-96), HEK293T (CRL-3216), and HeLa (CCL-2) cells were originally purchased from ATCC and periodically authenticated by short tandem repeat (STR) profiling. Cells were grown in Dulbecco’s modified Eagle’s medium (DMEM) supplemented with 10% fetal bovine serum (FBS), 1% penicillin/streptomycin, and 1% L-glutamine. Cells were counted using ADAM-CellT (NanoEntek), plated, and transfected using either Lipofectamine 3000 (L3000008; Thermo Fisher Scientific) or Viafect (E4981; Promega) for transient overexpression according to the manufacturer’s instructions. Cytotoxicity was assayed using CellTiter-Glo 2.0 reagent (Promega) according to the manufacturer’s instructions.
# [4] = system: preformed stress granules in U2OS cells stably expressing G3BP1-GFP; test: Post-addition: dissolution of heat stress-induced stress granules; settings: for immediate reduction in stress granule area (preformed granules): 50 μM added after 25 min of 43°C heat stress; for stress granule disassembly during recovery at 37°C: 50 μM, compared with cells treated with inactive enantiomers
# Method: For post-addition of compounds, U2OS cells stably expressing G3BP1-GFP were seeded into eight-well Lab-Tek chambered cover glass (Nunc) for sodium arsenite experiments or 35-mm glass-bottom dishes (MatTek) for heat shock experiments. Immediately prior to the experiment, media was replaced with FluoroBrite DMEM media (Gibco) in each well supplemented with 10% FBS and 4 mM L-glutamine; for sodium arsenite experiments, arsenite was added at a final concentration of 250 μM. Cells were then placed on a microscope on which 37°C temperature and 5% CO2 were maintained using a Bold Line Cage Incubator (Okolab) and an objective heater (Bioptechs), and 5–10 xy fields were stored. For sodium arsenite experiments, acquisition began immediately after finding all xy positions, 4 min after the addition of sodium arsenite. 30 min after arsenite was added, 250 μl FluoroBrite DMEM with 250 μM sodium arsenite and 0.1 mM (2×) G3I compound (vortexed for 5 s) was added to the sample. For heat shock experiments, each xy position was imaged every minute. At 2 min into the acquisition, the objective heater was ramped to 43°C. Following this, 250 μM (5×) G3I compound was prepared in FluoroBrite DMEM and vortexed for 15 s. This solution was kept on a 47°C heater near the microscope along with a pipette tip. At 27 min into the acquisition (25 min into heat shock), 250 μl of the prewarmed solution was added to the cells using the prewarmed tip. We note that the solution was heated to 47°C to compensate for the rapid heat loss when adding the solution. At 32 min into the acquisition (30 min heat shock), the heat was ramped down to 37°C. All imaging was acquired on a Yokogawa CSU W1 spinning disk attached to a Nikon Ti2 eclipse with a Photometrics Prime 95B camera using Nikon Elements software (v5.20.00 to v5.21.02). Imaging was performed through a Nikon Plan Apo 60× 1.40 NA oil objective with Immersol 518 F (refractive index 1.518; Zeiss), and Perfect Focus 2.0 (Nikon) was engaged for all captures.
# Automated granule detection and measurement were performed using a combination of ilastik and CellProfiler software. Briefly, ND2 multipoint timelapse files were resaved as image sequences in Fiji with the Bio-Formats plugin so that individual frames of the movies could be treated as individual images for analysis. From there, pixel classification in ilastik was used to segment both stress granules and the total cellular area within the field using the G3BP1-GFP channel via machine learning. These segmentations, along with the original G3BP1-GFP image, were input into CellProfiler, where objects were defined using the masks from ilastik.
Compound,reduction of stress granule area (preformed granules) [1] [%],eIF3η and PABPC1 puncta [2],TDP-43 accumulation in stress granules [3],cell-based toxicity (U2OS cells),immediate reduction in stress granule area (preformed granules) [4] [%],stress granule disassembly during recovery at 37°C [4]
COCCC(NC(=O)C(C)NC(=O)C(NC(=O)C(NC(=O)C(F)CC(C)(C)C)C(C)(C)O)C(C)c1ccccc1)C(=O)N(C)Cc1ccccc1 (stereo not drawn) [G3Ia],~74,reduced eIF3η and PABPC1 puncta,not,do not appear to induce cellular toxicity or growth phenotypes,~54,completed disassembly faster
CC(NC(=O)C(NC(=O)C(NC(=O)CCC(C)(C)C)C(C)(C)O)C(C)c1ccccc1)C(=O)N1CCCC1c1ccccc1 (stereo not drawn) [G3Ib],~84,reduced eIF3η and PABPC1 puncta,not,do not appear to induce cellular toxicity or growth phenotypes,~68,completed disassembly faster

# Source: paper PMC10824102, “Identification of small molecule inhibitors of G3BP-driven stress granule formation” (The Journal of Cell Biology, 2024)
